Several values for one entry are separate records, joined by “and”; a condition that tells them apart may be missing. Equal values may be shown once. Activity calls are given as the source filed them.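 The calls were made as follows: active = mean IC50 of at most 10 µM; inactive = the rest.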
What follows are molecules tested on H9c2 cardiomyoblasts, H2O2 injury protection, ATPLite luminescence, 2 h (assay: cardioprotective compounds against peroxide injury – H9c2 cells, H2O2, set 2, SAR follow-up (AID 624458)).

| SMILES | IC50 |
| --- | --- |
| COc1ccc(N2C(=O)c3ccccc3N3C(=O)c4c(ccc(OC)c4OC)C23)cc1 (centres undefined) | 12.8 µM (inactive) |
| O=C1c2ccccc2N2C(=O)c3ccccc3C2N1c1cccc(Br)c1 (centres undefined) | > 79 µM (inactive) |
| O=C1c2ccccc2N2C(=O)c3ccccc3C2N1c1ccccc1 (centres undefined) | 61.1 µM (inactive) |
| COc1ccc2c(c1OC)C(=O)N1c3ccccc3C(=O)N(c3cccc(C)c3)C21 (centres undefined) | 17.8 µM (inactive) |
| COc1cc(-c2cc(C(=O)Nc3ccc(C(C)=O)cc3)c3ccccc3n2)cc(OC)c1OC | 3.53 µM |
| COc1ccc2c(c1OC)C(=O)N1c3ccccc3C(=O)N(c3cccc(F)c3)C21 (centres undefined) | 6.91 µM |
| COc1cc(-c2cc(C(=O)Nc3cccc(Cl)c3)c3ccccc3n2)cc(OC)c1OC | 58.4 µM (inactive) |
| COc1cc(-c2cc(C(=O)Nc3cccc(C)c3)c3ccccc3n2)cc(OC)c1OC | 18.8 µM (inactive) |
| COc1cccc(-c2cc(C(=O)Nc3cccc(C(C)=O)c3)c3ccccc3n2)c1 | 6.74 µM |
| COc1ccc2c(c1OC)C(=O)N1c3ccccc3C(=O)N(Cc3cccc(Cl)c3)C21 (centres undefined) | 2.96 µM |
| COc1cccc(NC(=O)c2cc(-c3cc(OC)c(OC)c(OC)c3)nc3ccccc23)c1 | 8.18 µM |
| COc1cccc(CNC(=O)c2cc(-c3ccc(OC)c(OC)c3)nc3ccccc23)c1 | 5.82 µM |
| COc1cc(-c2cc(C(=O)Nc3cccc(F)c3)c3ccccc3n2)cc(OC)c1OC | 10.6 µM (inactive) |
| CCN(CC(=O)Nc1ccc(OC)cc1)C(=O)c1cc(-c2cc(OC)c(OC)c(OC)c2)nc2ccccc12 | 3.89 µM |
| COc1ccc(NC(=O)c2cc(-c3cc(OC)c(OC)c(OC)c3)nc3ccccc23)cc1 | 7.41 µM |
| COc1ccc2c(c1OC)C(=O)N1c3ccccc3C(=O)N(c3cccc(Br)c3)C21 (centres undefined) | 1.75 µM and 12.5 µM (inactive) |
| CC(=O)c1cccc(NC(=O)c2cc(-c3ccccc3)nc3ccccc23)c1 | 7.04 µM |

| SMILES | IC50 |
| --- | --- |
| COc1ccc2c(c1OC)C(=O)N1c3ccccc3C(=O)N(c3ccc(C)cc3)C21 (centres undefined) | 0.959 µM |
| COc1ccc2c(c1OC)C(=O)N1c3ccccc3C(=O)N(c3ccccc3)C21 (centres undefined) | 11 µM (inactive) |
| COc1ccc(-c2cc(C(=O)Nc3cccc(C(C)=O)c3)c3ccccc3n2)cc1OC | 8.37 µM |
| COc1ccc2c(c1OC)C(=O)N1c3ccccc3C(=O)N(c3cccc(C(F)(F)F)c3)C21 (centres undefined) | 13.8 µM (inactive) |
| COc1ccc2c(c1OC)C(=O)N1c3ccccc3C(=O)N(c3cccc(Cl)c3)C21 (centres undefined) | 12.1 µM (inactive) |
| COc1ccc(-c2cc(C(=O)Nc3cccc(C(C)=O)c3)c3ccccc3n2)cc1 | 5.6 µM |
| COc1cccc(CNC(=O)c2cc(-c3cc(OC)c(OC)c(OC)c3)nc3ccccc23)c1 | 4.8 µM |
| COc1cc(-c2cc(C(=O)Nc3ccccc3)c3ccccc3n2)cc(OC)c1OC | 10.1 µM (inactive) |
| COc1cc(-c2cc(C(=O)Nc3cccc(C(C)=O)c3)c3cc(Cl)ccc3n2)cc(OC)c1OC | 6.13 µM |
| COc1cc(-c2cc(C(=O)Nc3cccc(C(C)=O)c3)c3ccccc3n2)cc(OC)c1OC | 1.41 µM and 4.26 µM |
| COc1ccc2c(c1OC)C(=O)N1c3ccccc3C(=O)N(c3ccc(C(C)(C)C)cc3)C21 (centres undefined) | 5.55 µM |
| CCOC(=O)c1cccc(NC(=O)c2cc(-c3cc(OC)c(OC)c(OC)c3)nc3ccccc23)c1 | 3.06 µM |
| COc1cc(-c2cc(C(=O)Nc3cccc(C(F)(F)F)c3)c3ccccc3n2)cc(OC)c1OC | 75.3 µM (inactive) |
| COc1cccc(N2C(=O)c3ccccc3N3C(=O)c4c(ccc(OC)c4OC)C23)c1 (centres undefined) | 6.89 µM |
| COc1ccc2c(c1OC)C(=O)N1c3ccccc3C(=O)N(c3ccc(Br)cc3)C21 (centres undefined) | 1.97 µM |
| COc1cccc(N2C(=O)c3ccccc3N3C(=O)c4ccccc4C23)c1 (centres undefined) | 40.5 µM (inactive) |
| COc1ccc2c(c1OC)C(=O)N1c3ccccc3C(=O)N(Cc3ccccc3Cl)C21 (centres undefined) | 1.2 µM |
